Reference: patent US10570129B2 (Zoetis Services LLC, priority 2015, dated 2020)

Columns and labels:
Haemonchus contortus L3 = experiment: microbe, parasite or virus in culture; format: cell-based; conditions: Haemonchus contortus, 96 h, read-out: HcL3 Minimal Effective Concentration (MEC)
D. immitis microfilariae = experiment: Dirofilaria immitis, microfilariae (DiMF) in vitro motility assay; format: cell-based; conditions: Dirofilaria immitis, 72 h, read-out: DiMF minimally effective dose (MEC)
[1] = test system: Trichostrongylus colubriformis; experiment: Jird efficacy model; format: in vivo; conditions: Trichostrongylus colubriformis, sc, 96 h, read-out: Jird % (percentage efficacy)

Structure (SMILES) | minimal effective concentration (Haemonchus contortus L3) [µM] | minimal effective concentration (D. immitis microfilariae) [µM] | inhibition in vivo at 10 mg/kg [1] [%]
N#Cc1ccc2c(c1)c1c(n2C(=O)NCc2ccnc(C(F)(F)F)c2)CCN(C/C=C/c2ccc(Cl)cc2F)C1 [Example 128, (E)-2-(3-(4-chloro-2-fluorophenyl)allyl)-8-cyano-N-((2-(trifluoromethyl)pyridin-4-yl)methyl)-1,2,3,4-tetrahydro-5H-pyrido[4,3-b]indole-5-carboxamide] | 0.1 | 0.7 | 100
O=C(NCc1ccnc(F)c1)n1c2c(c3cc(C(F)(F)F)ccc31)CN(C/C=C/c1ccc(F)cc1F)CC2 [Example 417, (E)-2-(3-(2,4-difluorophenyl)allyl)-N-((2-fluoropyridin-4-yl)methyl)-8-(trifluoromethyl)-1,2,3,4-tetrahydro-5H-pyrido[4,3-b]indole-5-carboxamide] | 5.7 | 10 | 100
O=C(NCc1ccnc(Cl)c1)n1c2c(c3cc(Cl)c(Cl)cc31)CN(C/C=C/c1ccc(F)cc1)CC2 [Example 282, (E)-7,8-dichloro-N-((2-chloropyridin-4-yl)methyl)-2-(3-(4-fluorophenyl)allyl)-1,2,3,4-tetrahydro-5H-pyrido[4,3-b]indole-5-carboxamide] | 0.3 | 3.3 | 100
O=C(NCc1ccnc(F)c1)n1c2c(c3ccc(Cl)cc31)CN(C/C=C/c1ccc(F)c(F)c1)CC2 [Example 228, (E)-7-chloro-2-(3-(3,4-difluorophenyl)allyl)-N-((2-fluoropyridin-4-yl)methyl)-1,2,3,4-tetrahydro-5H-pyrido[4,3-b]indole-5-carboxamide] | 1.8 | 3.3 | 98
O=C(NCc1ccnc(Cl)c1)n1c2c(c3ccc(OC(F)(F)F)cc31)CN(C/C=C/c1ccc(F)cc1)CC2 [Example 356, (E)-N-((2-chloropyridin-4-yl)methyl)-2-(3-(4-fluorophenyl)allyl)-7-(trifluoromethoxy)-1,2,3,4-tetrahydro-5H-pyrido[4,3-b]indole-5-carboxamide] | 0.6 | 3.8 | 100
N#Cc1ccc2c(c1)c1c(n2C(=O)NCc2ccnc(F)c2)CCN(C/C=C/c2ccc(F)cc2)C1 [Example 123, (E)-8-cyano-2-(3-(4-fluorophenyl)allyl)-N-((2-fluoropyridin-4-yl)methyl)-1,2,3,4-tetrahydro-5H-pyrido[4,3-b]indole-5-carboxamide] | 0.3 | 10 | 100
N#Cc1ccc2c3c(n(C(=O)NCc4ccnc(Cl)c4)c2c1)CCN(C/C=C/c1c(F)cc(F)cc1F)C3 [Example 9, (E)-N-((2-chloropyridin-4-yl)methyl)-7-cyano-2-(3-(2,4,6-trifluorophenyl)allyl)-1,2,3,4-tetrahydro-5H-pyrido[4,3-b]indole-5-carboxamide] | 7.6 | 5.7 | 99
N#Cc1ccc2c(c1)c1c(n2C(=O)NCc2ccnc(F)c2)CCN(C/C=C/c2ccc(F)cc2F)C1 [Example 115, (E)-8-cyano-2-(3-(2,4-difluorophenyl)allyl)-N-((2-fluoropyridin-4-yl)methyl)-1,2,3,4-tetrahydro-5H-pyrido[4,3-b]indole-5-carboxamide] | 0.1 | 3.3 | 100
O=C(NCc1ccnc(Cl)c1)n1c2c(c3cc(N4CCOCC4)ccc31)CN(C/C=C/c1ccc(Cl)c(F)c1)CC2 [Example 504, (E)-2-(3-(4-chloro-3-fluorophenyl)allyl)-N-((2-chloropyridin-4-yl)methyl)-8-morpholino-1,2,3,4-tetrahydro-5H-pyrido[4,3-b]indole-5-carboxamide] | 5.7 | 10 | 100
O=C(NCc1ccnc(Cl)c1)n1c2c(c3cc(N4CCOCC4)ccc31)CN(C/C=C/c1ccc(Cl)cc1)CC2 [Example 505, (E)-2-(3-(4-chlorophenyl)allyl)-N-((2-chloropyridin-4-yl)methyl)-8-morpholino-1,2,3,4-tetrahydro-5H-pyrido[4,3-b]indole-5-carboxamide] | 10 | 13.5 | 100
N#Cc1ccc2c3c(n(C(=O)NCc4ccnc(Br)c4)c2c1)CCN(C/C=C/c1ccc(Cl)c(F)c1)C3 [Example 41, (E)-N-((2-bromopyridin-4-yl)methyl)-2-(3-(4-chloro-3-fluorophenyl)allyl)-7-cyano-1,2,3,4-tetrahydro-5H-pyrido[4,3-b]indole-5-carboxamide] | 0.3 | 5.7 | 100
O=C(NCc1ccnc(Cl)c1)n1c2c(c3cc(OC(F)(F)F)ccc31)CN(C/C=C/c1ccc(Cl)cc1)CC2 [Example 391, (E)-2-(3-(4-chlorophenyl)allyl)-N-((2-chloropyridin-4-yl)methyl)-8-(trifluoromethoxy)-1,2,3,4-tetrahydro-5H-pyrido[4,3-b]indole-5-carboxamide] | 1 | 32.1 | 100
N#Cc1ccc2c3c(n(C(=O)NCc4ccnc(Cl)c4)c2c1)CCN(C/C=C/c1cc(F)cc(F)c1)C3 [Example 30, (E)-N-((2-chloropyridin-4-yl)methyl)-7-cyano-2-(3-(3,5-difluorophenyl)allyl)-1,2,3,4-tetrahydro-5H-pyrido[4,3-b]indole-5-carboxamide] | 0.5 | 10 | 100
N#Cc1ccc(/C=C/CN2CCc3c(c4cc(OC(F)(F)F)ccc4n3C(=O)NCc3ccnc(Cl)c3)C2)cc1 [Example 390, (E)-N-((2-chloropyridin-4-yl)methyl)-2-(3-(4-cyanophenyl)allyl)-8-(trifluoromethoxy)-1,2,3,4-tetrahydro-5H-pyrido[4,3-b]indole-5-carboxamide] | 0.5 | 18.2 | 100
O=C(NCc1ccnc(Cl)c1)n1c2c(c3ccc(C(F)(F)F)cc31)CN(C/C=C/c1ccc(Cl)c(F)c1)CC2 [Example 152, (E)-2-(3-(4-chloro-3-fluorophenyl)allyl)-N-((2-chloropyridin-4-yl)methyl)-7-(trifluoromethyl)-1,2,3,4-tetrahydro-5H-pyrido[4,3-b]indole-5-carboxamide] | 1 | 3.3 | 99
N#Cc1ccc2c3c(n(C(=O)NCc4ccnc(Cl)c4)c2c1)CCN(C/C=C/c1ccc(Cl)c(F)c1)C3 [Example 2, (E)-2-(3-(4-chloro-3-fluorophenyl)allyl)-N-((2-chloropyridin-4-yl)methyl)-7-cyano-1,2,3,4-tetrahydro-5H-pyrido[4,3-b]indole-5-carboxamide] | 1.6 | 4.8 | 100
O=C(NCc1ccnc(Cl)c1)n1c2c(c3cc(Cl)ccc31)CN(C/C=C/c1ccc(F)c(F)c1)CC2 [Example 240, (E)-8-chloro-N-((2-chloropyridin-4-yl)methyl)-2-(3-(3,4-difluorophenyl)allyl)-1,2,3,4-tetrahydro-5H-pyrido[4,3-b]indole-5-carboxamide] | 0.2 | 3.3 | 98
O=C(NCc1ccnc(Cl)c1)n1c2c(c3c(Br)cccc31)CN(C/C=C/c1ccc(Cl)cc1)CC2 [Example 444, (E)-9-bromo-2-(3-(4-chlorophenyl)allyl)-N-((2-chloropyridin-4-yl)methyl)-1,2,3,4-tetrahydro-5H-pyrido[4,3-b]indole-5-carboxamide] | 0.7 | 2.4 | 100
O=C(NCc1ccnc(F)c1)n1c2c(c3cc(F)c(Cl)cc31)CN(C/C=C/c1ccc(F)c(F)c1)CC2 [Example 314, (E)-7-chloro-2-(3-(3,4-difluorophenyl)allyl)-8-fluoro-N-((2-fluoropyridin-4-yl)methyl)-1,2,3,4-tetrahydro-5H-pyrido[4,3-b]indole-5-carboxamide] | 1 | 3.3 | 100
N#Cc1ccc2c(c1)c1c(n2C(=O)NCc2ccnc(F)c2)CCN(C/C=C/c2cc(Br)ccc2F)C1 [Example 108, (E)-2-(3-(5-bromo-2-fluorophenyl)allyl)-8-cyano-N-((2-fluoropyridin-4-yl)methyl)-1,2,3,4-tetrahydro-5H-pyrido[4,3-b]indole-5-carboxamide] | 2.4 | 3.2 | 100
N#Cc1ccc2c3c(n(C(=O)NCc4ccnc(Cl)c4)c2c1)CCN(C/C=C/c1ccc(F)c(F)c1F)C3 [Example 13, (E)-N-((2-chloropyridin-4-yl)methyl)-7-cyano-2-(3-(2,3,4-trifluorophenyl)allyl)-1,2,3,4-tetrahydro-5H-pyrido[4,3-b]indole-5-carboxamide] | 1.8 | 10 | 100
O=C(NCc1ccnc(F)c1)n1c2c(c3ccc(Cl)cc31)CN(C/C=C/c1ccc(Cl)cc1)CC2 [Example 229, (E)-7-chloro-2-(3-(4-chlorophenyl)allyl)-N-((2-fluoropyridin-4-yl)methyl)-1,2,3,4-tetrahydro-5H-pyrido[4,3-b]indole-5-carboxamide] | 3.3 | 10 | 100
N#Cc1ccc(/C=C/CN2CCc3c(c4cc(Br)ccc4n3C(=O)NCc3ccnc(Cl)c3)C2)cc1 [Example 184, (E)-8-bromo-N-((2-chloropyridin-4-yl)methyl)-2-(3-(4-cyanophenyl)allyl)-1,2,3,4-tetrahydro-5H-pyrido[4,3-b]indole-5-carboxamide] | 1 | 57.4 | 100
